In patent publication US8735414B2 (priority 2009, dated 2014):

Key:
[1] = tested on: bicistronic HCV replicon (replicon RNA, GenBank Accession No. AJ242654); assay: HCV Replicon Assay; format: cell-based; conditions: Hepatitis C virus, 72 h, read-out: Replicon IC50

Row | Compound | IC50 [1] | melting point
1 | CCc1cc2c(cc1F)c(C#N)c(-c1ccc(S(=O)(=O)N[C@@H](C)C(F)(F)F)cn1)n2-c1cccc(C)c1 [compound 1009, 6-[3-cyano-6-ethyl-5-fluoro-1-(3-methylphenyl)-1H-indol-2-yl]-N-[(2S)-1,1,1-trifluoropropan-2-yl]pyridine-3-sulfonamide] | < 500 nM | 193 to 198 °C
2 | COc1ccc2c(C#N)c(-c3ccc(NS(=O)(=O)C(C)(C)C)nn3)n(C3CCC3)c2c1 [compound 278, N-[6-(3-cyano-1-cyclobutyl-6-methoxy-1H-indol-2-yl)pyridazin-3-yl]-2-methylpropane-2-sulfonamide] | 500 to 2000 nM | 218 to 220 °C
3 | Cc1cc2c(cc1F)c(C(N)=O)c(-c1ccc(S(=O)(=O)N[C@@H](C)C(F)(F)F)cn1)n2-c1ccccn1 [compound 874, 5-fluoro-6-methyl-1-(pyridin-2-yl)-2-(5-{[(2S)-1,1,1-trifluoropropan-2-yl]sulfamoyl}pyridin-2-yl)-1H-indole-3-carboxamide] | < 500 nM | 142 to 148 °C
4 | Cc1cc2c(cc1F)c(C#N)c(-c1ccc(S(=O)(=O)N[C@@H](C)C(F)(F)F)cn1)n2-c1nc(C#N)co1 [compound 1074, 6-[3-cyano-1-(4-cyano-1,3-oxazol-2-yl)-5-fluoro-6-methyl-1H-indol-2-yl]-N-[(2S)-1,1,1-trifluoropropan-2-yl]pyridine-3-sulfonamide] | < 500 nM | 212.2 to 216.9 °C
5 | COc1cc2c(cc1F)c(C#N)c(-c1ncc(S(=O)(=O)NC(CF)CF)cn1)n2C1CCC1 [compound 150, 2-(3-cyano-1-cyclobutyl-5-fluoro-6-methoxy-1H-indol-2-yl)-N-(1,3-difluoropropan-2-yl)pyrimidine-5-sulfonamide] | < 500 nM | 245 to 247 °C
6 | N#Cc1c(-c2ccc(S(=O)(=O)NC(CF)CF)cn2)n(C2CCCC2)c2cc(CC(F)F)ccc12 [compound 593, 6-[3-cyano-1-cyclopentyl-6-(2,2-difluoroethyl)-1H-indol-2-yl]-N-(1,3-difluoropropan-2-yl)pyridine-3-sulfonamide] | < 500 nM | 178 to 184 °C
7 | CCS(=O)(=O)Nc1ccc(-c2c(C#N)c3ccc(OC(C)C)cc3n2C2CCC2)nn1 [compound 276, N-{6-[3-cyano-1-cyclobutyl-6-(propan-2-yloxy)-1H-indol-2-yl]pyridazin-3-yl}ethanesulfonamide] | 2000 to 5000 nM | 181 to 183 °C
8 | Cc1cc2c(cc1F)c(C#N)c(-c1ccc(S(=O)(=O)NC(CF)CF)cn1)n2-c1ccccn1 [compound 540, 6-[3-cyano-5-fluoro-6-methyl-1-(pyridin-2-yl)-1H-indol-2-yl]-N-(1,3-difluoropropan-2-yl)pyridine-3-sulfonamide] | < 500 nM | 233 to 236 °C
9 | Cc1ccnc(-n2c(-c3ccc(S(=O)(=O)N[C@@H](C)C(F)(F)F)cn3)c(C(N)=O)c3cc(F)c(C)cc32)n1 [compound 905, 5-fluoro-6-methyl-1-(4-methylpyrimidin-2-yl)-2-(5-{[(2S)-1,1,1-trifluoropropan-2-yl]sulfamoyl}pyridin-2-yl)-1H-indole-3-carboxamide] | < 500 nM | 205 to 210 °C
10 | Cc1ccc2c(C#N)c(-c3ccc(S(=O)(=O)N[C@H](C)C(F)(F)F)cn3)n(C3CCC3)c2c1 [compound 192, 6-(3-cyano-1-cyclobutyl-6-methyl-1H-indol-2-yl)-N-[(2R)-1,1,1-trifluoropropan-2-yl]pyridine-3-sulfonamide] | < 500 nM | 204 to 208 °C
11 | CC(C)NS(=O)(=O)c1ccc(-c2c(C#N)c3ccc(OC(F)(F)F)cc3n2C(C)C)nc1 [compound 12, 6-[3-cyano-1-(propan-2-yl)-6-(trifluoromethoxy)-1H-indol-2-yl]-N-(propan-2-yl)pyridine-3-sulfonamide] | 500 to 2000 nM | 160 to 162 °C
12 | COc1ccc2c(C#N)c(-c3ncc(S(=O)(=O)N[C@@H](C)C(F)(F)F)cn3)n(C3CCC3)c2c1 [compound 405, 2-(3-cyano-1-cyclobutyl-6-methoxy-1H-indol-2-yl)-N-[(2S)-1,1,1-trifluoropropan-2-yl]pyrimidine-5-sulfonamide] | < 500 nM | 254 to 255 °C
13 | COc1ccc2c(C#N)c(-c3ncc(S(=O)(=O)NC(CF)CF)cn3)n(C3CCC3)c2c1 [compound 230, 2-(3-cyano-1-cyclobutyl-6-methoxy-1H-indol-2-yl)-N-(1,3-difluoropropan-2-yl)pyrimidine-5-sulfonamide] | < 500 nM | 217 to 219 °C
14 | N#Cc1c(-c2ccc(S(=O)(=O)NC(CF)CF)cn2)n(C2CCCC2)c2c(F)cccc12 [compound 87, 6-(3-cyano-1-cyclopentyl-7-fluoro-1H-indol-2-yl)-N-(1,3-difluoropropan-2-yl)pyridine-3-sulfonamide] | < 500 nM | 128 to 129 °C
15 | C[C@H](NS(=O)(=O)c1ccc(-c2c(C#N)c3cc(F)c(C4CC4)cc3n2C2CCC2)nc1)C(F)(F)F [compound 630, 6-(3-cyano-1-cyclobutyl-6-cyclopropyl-5-fluoro-1H-indol-2-yl)-N-[(2S)-1,1,1-trifluoropropan-2-yl]pyridine-3-sulfonamide] | < 500 nM | 201 to 203 °C
16 | C[C@@H](NS(=O)(=O)c1ccc(-c2c(C#N)c3ccc(OC(F)F)cc3n2-c2ccc(F)cc2)nc1)C(F)(F)F [compound 649, 6-[3-cyano-6-(difluoromethoxy)-1-(4-fluorophenyl)-1H-indol-2-yl]-N-[(2R)-1,1,1-trifluoropropan-2-yl]pyridine-3-sulfonamide] | < 500 nM | 199 to 203 °C
17 | C[C@H](NS(=O)(=O)c1ccc(-c2c(C(N)=O)c3c(F)cc(OC(F)F)cc3n2C2CCC2)nc1)C(F)(F)F [compound 825, 1-cyclobutyl-6-(difluoromethoxy)-4-fluoro-2-(5-{[(2S)-1,1,1-trifluoropropan-2-yl]sulfamoyl}pyridin-2-yl)-1H-indole-3-carboxamide] | < 500 nM | 254 to 256 °C
18 | C[C@H](NS(=O)(=O)c1ccc(-c2c(C#N)c3ccc(OC(F)F)cc3n2-c2ccccn2)nc1)C(F)(F)F [compound 387, 6-[3-cyano-6-(difluoromethoxy)-1-(pyridin-2-yl)-1H-indol-2-yl]-N-[(2S)-1,1,1-trifluoropropan-2-yl]pyridine-3-sulfonamide] | < 500 nM | 199 to 203 °C
19 | COc1ccc2c(C#N)c(-c3ncc(S(=O)(=O)N[C@@H](C)C(F)(F)F)cn3)n(C3CCCC3)c2c1 [compound 406, 2-(3-cyano-1-cyclopentyl-6-methoxy-1H-indol-2-yl)-N-[(2S)-1,1,1-trifluoropropan-2-yl]pyrimidine-5-sulfonamide] | < 500 nM | 211 to 212 °C
20 | CCS(=O)(=O)Nc1ccc(-c2c(C#N)c3ccc(C4CC4)cc3n2C2CCC2)cn1 [compound 288, N-[5-(3-cyano-1-cyclobutyl-6-cyclopropyl-1H-indol-2-yl)pyridin-2-yl]ethanesulfonamide] | 500 to 2000 nM | 241 to 243 °C
